Article PMC5439695 (PLoS ONE, 2017)

Assays:
HepG2 cells [1] = assay: CellTox Green Cytotoxicity Assay (flor) in HepG2, HepG2[flor]; format: cell-based, human; settings: HepG2 flor;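 on hepg2 flor emax 0: percent activity versus DMSO-only wells with baseline rescaled to 0%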;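 on hepg2 flor emax 40: percent activity versus DMSO-only wells with baseline rescaled to 0%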
HEK293 cells [2] = settings: HEK293 glo
HEK293 cells [3] = settings: HEK293 flor
HepG2 cells [4] = settings: HepG2 glo
[5] = system: HEK293 and HepG2 cell lines; settings: any activity in any time point/assay
Wherever hek293 flor emax 0 is given: unit not given here.

## Cc1cc(N)c2cc(NC(=O)Nc3ccc4nc(C)cc(N)c4c3)ccc2n1.Cl.Cl [Aminoquinuride dihydrochloride]
HepG2 cells [1]
  hepg2_flor_auc: 0
  hepg2_flor_time: 48
HepG2 cells [1]; kinetics bin
  hepg2_flor_bin: inactive
HepG2 cells [1]; time point 0
  hepg2_flor_emax_0: 0
  hepg2_flor_pod_0: -4.417
  hepg2_flor_wauc_0: 0
HepG2 cells [1]; time point 8
  hepg2_flor_emax_8: 0
  hepg2_flor_pod_8: -4.417
  hepg2_flor_wauc_8: 0
HepG2 cells [1]; time point 16
  hepg2_flor_emax_16: 0
  hepg2_flor_pod_16: -4.417
  hepg2_flor_wauc_16: 0
HepG2 cells [1]; time point 24
  hepg2_flor_emax_24: 0
  hepg2_flor_pod_24: -4.417
  hepg2_flor_wauc_24: 0
HepG2 cells [1]; time point 32
  hepg2_flor_emax_32: 0
  hepg2_flor_pod_32: -4.417
  hepg2_flor_wauc_32: 0
HepG2 cells [1]; time point 40
  hepg2_flor_emax_40: 0
  hepg2_flor_pod_40: -4.417
  hepg2_flor_wauc_40: 0
HEK293 cells [2]
  hek293_glo_auc: 0
  hek293_glo_time: 48
HEK293 cells [2]; kinetics bin
  hek293_glo_bin: inactive
HEK293 cells [2]; time point 0
  hek293_glo_emax_0: 0
  hek293_glo_pod_0: -4.417
  hek293_glo_wauc_0: 0
HEK293 cells [2]; time point 8
  hek293_glo_emax_8: 0
  hek293_glo_pod_8: -4.417
  hek293_glo_wauc_8: 0
HEK293 cells [2]; time point 16
  hek293_glo_emax_16: 0
  hek293_glo_pod_16: -4.417
  hek293_glo_wauc_16: 0
HEK293 cells [2]; time point 24
  hek293_glo_emax_24: 0
  hek293_glo_pod_24: -4.417
  hek293_glo_wauc_24: 0
HEK293 cells [2]; time point 32
  hek293_glo_emax_32: 0
  hek293_glo_pod_32: -4.417
  hek293_glo_wauc_32: 0
HEK293 cells [2]; time point 40
  hek293_glo_emax_40: 0
  hek293_glo_pod_40: -4.417
  hek293_glo_wauc_40: 0
HEK293 cells [3]
  hek293_flor_auc: 0
  hek293_flor_time: 48
HEK293 cells [3]; kinetics bin
  hek293_flor_bin: inactive
HEK293 cells [3]; time point 0
  hek293_flor_emax_0: 0
  hek293_flor_pod_0: -4.417
  hek293_flor_wauc_0: 0
HEK293 cells [3]; time point 8
  hek293_flor_emax_8: 0
  hek293_flor_pod_8: -4.417
  hek293_flor_wauc_8: 0
HEK293 cells [3]; time point 16
  hek293_flor_emax_16: 0
  hek293_flor_pod_16: -4.417
  hek293_flor_wauc_16: 0
HEK293 cells [3]; time point 24
  hek293_flor_emax_24: 0
  hek293_flor_pod_24: -4.417
  hek293_flor_wauc_24: 0
HEK293 cells [3]; time point 32
  hek293_flor_emax_32: 0
  hek293_flor_pod_32: -4.417
  hek293_flor_wauc_32: 0
HEK293 cells [3]; time point 40
  hek293_flor_emax_40: 0
  hek293_flor_pod_40: -4.417
  hek293_flor_wauc_40: 0
HepG2 cells [4]
  hepg2_glo_auc: 0
  hepg2_glo_time: 48
HepG2 cells [4]; kinetics bin
  hepg2_glo_bin: inactive
HepG2 cells [4]; time point 0
  hepg2_glo_emax_0: 0
  hepg2_glo_pod_0: -4.417
  hepg2_glo_wauc_0: 0
HepG2 cells [4]; time point 8
  hepg2_glo_emax_8: 0
  hepg2_glo_pod_8: -4.417
  hepg2_glo_wauc_8: 0
HepG2 cells [4]; time point 16
  hepg2_glo_emax_16: 0
  hepg2_glo_pod_16: -4.417
  hepg2_glo_wauc_16: 0
HepG2 cells [4]; time point 24
  hepg2_glo_emax_24: 0
  hepg2_glo_pod_24: -4.417
  hepg2_glo_wauc_24: 0
HepG2 cells [4]; time point 32
  hepg2_glo_emax_32: 0
  hepg2_glo_pod_32: -4.417
  hepg2_glo_wauc_32: 0
HepG2 cells [4]; time point 40
  hepg2_glo_emax_40: 0
  hepg2_glo_pod_40: -4.417
  hepg2_glo_wauc_40: 0
[5]
  information: 0
